# Columns and labels:
# kinase Axl = target: T1, kinase Axl (Homo sapiens, UniProt P30530); test: Mobility shift assay, inhibitory activity against kinase Axl; assay type: biochemical; settings: ATP at Km (81 μM), average of two independent experiments
# T1 construct: purchased Carna 08-107
# T1 sequence (P30530 473-894 limits assumed): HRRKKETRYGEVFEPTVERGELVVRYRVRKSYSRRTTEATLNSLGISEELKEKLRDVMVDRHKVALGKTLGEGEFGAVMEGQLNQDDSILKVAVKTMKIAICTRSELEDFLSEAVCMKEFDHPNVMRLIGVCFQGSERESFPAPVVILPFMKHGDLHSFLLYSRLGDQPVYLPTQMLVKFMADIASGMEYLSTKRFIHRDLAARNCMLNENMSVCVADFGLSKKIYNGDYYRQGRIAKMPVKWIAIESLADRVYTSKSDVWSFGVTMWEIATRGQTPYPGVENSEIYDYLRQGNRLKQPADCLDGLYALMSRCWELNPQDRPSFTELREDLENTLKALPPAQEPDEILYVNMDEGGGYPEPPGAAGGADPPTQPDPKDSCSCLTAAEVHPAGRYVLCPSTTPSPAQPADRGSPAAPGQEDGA
# Method: (§1) In this test, mobility shift assay was used to test the inhibitory activity of compounds when ATP concentrations correspond to the Km of the kinases.
# (§2) The concentration of test compound was 10-fold diluted from an initial concentration of 10 μM. The test result (IC50) was the average of two independent experiments.
# (§3) For example, a compound at an initial concentration of 10 μM was adjusted to 500 μM with 100% DMSO, then serially diluted for 10 concentrations, and then subjected to 10-fold dilution with the buffer to prepare a diluted compound intermediate containing 10% DMSO, 5 μL of which was transferred to the 384-well plate.
# (§4) 10 μL of the two enzyme solutions each was added to the 384-well plate and co-incubated with the compound for 10-15 min at room temperature.
# (§5) 10 μL of the diluted substrate was added to the 384-well plate to initiate the reaction, which lasts for 1 h at 28° C.
# (§6) 5) The conversion rate was read by Caliper Reader (Perkin Elmer) and the inhibition rate was calculated as the average of two tests.
# (§7) 6) IC50 values were fitted with XL-fit software.
# EBC-1 cells = test: EBC-1 cell proliferation, CellTiter-Glo Luminescent Cell Viability Assay; assay type: cell-based; settings: Homo sapiens, 72 h incubation, read-out: IC50 (nM) against EBC-1 cells
# Method: Test Example 3: Inhibitory Activity of Compounds disclosed herein against EBC-1 Cells
# Test method: the inhibitory activity of the compounds against EBC-1 cell proliferation was evaluated using CellTiter-Glo® Luminescent Cell Viability Assay Kit (Promega).
# Test procedures: when thawing EBC-1 cells, the cell cryopreservation tube was shaken rapidly in a water bath at 37° C. to thaw the cells in 1 min. The cell suspension after thawing was mixed with RPMI1640 culture medium containing 10% FBS and centrifuged for 5 min at 1000 rpm, and the supernatant was discarded. The cell pellet was suspended in 5 mL of complete culture medium. The suspension was placed in a cell culture flask with a bottom area of 25 cm^2, and cultured in a cell incubator at 37° C./95% humidity/5% CO2. Cell passage was performed when cell confluence reached about 80%. When the cells were passaged, the original cell suspension was directly made uniform by pipetting. 1/6 of the cell suspension was kept, added with 5 mL of new complete culture medium and then made uniform by pipetting. The cell culture flask was then placed in a cell incubator for further culturing. Cell plating was performed when the cell confluence reached about 80% again. With reference to the method for cell passage, 1/6 cell suspension was kept for further culturing when the cells were plated, and the remaining 5/6 of cell suspension was placed in a 15 mL centrifuge tube. Cell viability was detected by trypan blue exclusion using an IC1000 cell counter (Countstar) to ensure that cell viability was above 90%. Cell suspension at a density of 3.33×10^4 viable cells/mL was prepared using complete culture medium, and 90 μL of the cell suspension was added into 96-well cell culture plates, so that the cell density in the cell culture plates (day 0 plate and test compound plate) was 3000 viable cells/well. A control group that contains no cell or compound but only complete culture medium and a control group that contains no compound but cells were set. The cell plates were incubated overnight in a cell incubator. […] 10 μL of the above solution was added into a corresponding cell culture plate to ensure that the initial concentration of the compound was 10 μM, the dilution factor of adjacent concentration was 3.16, and the DMSO content in the cell culture plate was 0.1%. The cell plates were then incubated in the cell incubator for 72 h. During detection, CellTiter-Glo reagent (namely CellTiter-Glo® […] cell viability test reagent, Promega, Cat. No. G7572, Lot. No. 0000310975) was melted, and the cell plate was equilibrated at room temperature for 30 min. The cell plate was added with the CellTiter-Glo reagent at 100 μL per well, and then shaken on a QB-9001 microporous quick shaker (Kylin-Bell) for 5 min to fully lyse the cells. The cell plate was left to stand at room temperature for 20 min to stabilize luminescence signals, and the luminescence value of each well was scanned by a Spectramax M3 multi-functional microplate reader (Molecular Devices) at full wavelength.
# Test samples: example compounds of the present invention and cabozantinib (positive control compound).
# Data analysis: cell viability was calculated for compounds at various concentrations using the following formula:
# Cell viability(%)=(Lumtest compound−Lumculture solution control)/(Lumcell control−Lumculture solution control)×100%,
# where Lum refers to the luminescence value of each well of the test compound plate read by the multi-functional microplate reader.
# The data were analyzed using GraphPad Prism 7.0 software, fitted with nonlinear S-curve regression to give dose-response curves, and IC50 values were calculated therefrom.
# kinase c-MET = target: T2, kinase c-MET (Homo sapiens, UniProt P08581); test: Mobility shift assay, inhibitory activity against kinase c-MET; assay type: biochemical; settings: ATP at Km (35 μM), average of two independent experiments
# T2 construct: purchased Carna 08-151
# T2 sequence (P08581 956-1390 limits assumed): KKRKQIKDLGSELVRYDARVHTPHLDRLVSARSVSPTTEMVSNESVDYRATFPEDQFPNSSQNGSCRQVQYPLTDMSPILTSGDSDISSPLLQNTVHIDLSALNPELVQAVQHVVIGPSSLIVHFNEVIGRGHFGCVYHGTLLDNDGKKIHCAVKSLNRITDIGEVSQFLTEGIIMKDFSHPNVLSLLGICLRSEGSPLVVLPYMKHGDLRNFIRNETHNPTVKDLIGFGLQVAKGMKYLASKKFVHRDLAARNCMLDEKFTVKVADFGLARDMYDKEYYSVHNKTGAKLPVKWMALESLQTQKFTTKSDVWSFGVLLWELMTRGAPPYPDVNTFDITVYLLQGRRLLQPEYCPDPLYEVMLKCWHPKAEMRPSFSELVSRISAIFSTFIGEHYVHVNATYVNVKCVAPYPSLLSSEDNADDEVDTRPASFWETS
# Method: as §1, §2, §3, §4, §5, §6, §7
SMILES,IC50 (kinase Axl),IC50 (EBC-1 cells),IC50 (kinase c-MET)
"COc1cc2nccc(Oc3ccc(NC(=O)c4cn(C5CC5)c(C#N)c(-c5ccc(F)cc5)c4=O)cc3F)c2cc1OC [Example 22, 6-cyano-N-(4-((6,7-dimethoxyquinolin-4-yl)oxy)-3-fluoro-phenyl)-5-(4-fluorophenyl)-1-cyclopropyl-4-oxo-1,4-dihydropyridine-3-carboxamide]",5.9 nM,84 nM,–
"COc1cc2nccc(Oc3ccc(NC(=O)c4cc(C)c(C#N)n(-c5ccc(F)cc5)c4=O)cc3F)c2cc1OC [Example 29A, 6-cyano-N-(4-((6,7-dimethoxyquinolin-4-yl)oxy)-3-fluoro-phenyl)-1-(4-fluorophenyl)-5-methyl-2-oxo-1,2-dihydropyridine-3-carboxamide]",3.1 nM,82.7 nM,–
"COc1cc2nccc(Oc3ccc(NC(=O)c4cn(C5CCC5)c(C#N)c(-c5ccc(F)cc5)c4=O)cc3F)c2cc1OC [Example 23, 6-cyano-N-(4-((6,7-dimethoxyquinolin-4-yl)oxy)-3-fluoro-phenyl)-5-(4-fluorophenyl)-1-cyclobutyl-4-oxo-1,4-dihydropyridine-3-carboxamide]",–,74 nM,–
"N#Cc1c(C2CC2)cc(C(=O)Nc2ccc(-c3cc(-c4cnn(C5CCOCC5)c4)cnc3N)c(F)c2)c(=O)n1-c1ccc(F)cc1 [Example 16, N-(4-(2-amino-5-(1-(tetrahydro-2H-pyran-4-yl)-1H-pyrazol-4-yl)pyridin-3-yl)-3-fluorophenyl)-6-cyano-5-cyclopropyl-1-(4-fluorophenyl)-2-oxo-1,2-dihydro-pyridine-3-carboxamide]",9.8 nM,–,143 nM
"CC(C)n1cc(C(=O)Nc2ccc(-c3cc(-c4cnn(C5CCOCC5)c4)cnc3N)c(F)c2)c(=O)c(-c2ccc(F)cc2)c1C#N [Example 5, N-(4-(2-amino-5-(1-(tetrahydro-2H-pyran-4-yl)-1H-pyrazol-4-yl)-pyridin-3-yl)-3-fluorophenyl)-6-cyano-5-(4-fluorophenyl)-1-isopropyl-4-oxo-1,4-dihydro-pyridine-3-carboxamide]",2.6 nM,–,38 nM
"COCc1c(C)cc(C(=O)Nc2ccc(Oc3ccnc4cc(OC)c(OC)cc34)c(F)c2)c(=O)n1-c1ccc(F)cc1 [Example 28, 5-methyl-N-(4-((6,7-dimethoxyquinolin-4-yl)oxy)-3-fluoro-phenyl)-1-(4-fluorophenyl)-6-(methoxymethyl)-2-oxo-1,2-dihydropyridine-3-carboxamide]",1 nM,–,21 nM
"COc1cc2nccc(Oc3ccc(NC(=O)c4cc(Br)c(O)n(-c5ccc(F)cc5)c4=O)cc3F)c2cc1OC [Example 29B, 5-bromo-N-(4-((6,7-dimethoxyquinolin-4-yl)oxy)-3-fluorophenyl)-1-(4-fluorophenyl)-6-hydroxy-2-oxo-1,2-dihydropyridine-3-carboxamide]",3.9 nM,–,30 nM
"COc1cc2nccc(Oc3ccc(NC(=O)C4(C(=O)Nc5ccc(F)cc5)CC4)cc3)c2cc1OC [Cabozantinib, cabozantinib, reference compound]",–,37 nM,–
"N#Cc1c(-c2ccc(F)cc2)c(=O)c(C(=O)Nc2ccc(-c3cc(-c4cnn(C5CCNCC5)c4)cnc3N)c(F)c2)cn1C1CC1 [Example 11, N-(4-(2-amino-5-(1-(piperidin-4-yl)-1H-pyrazol-4-yl)pyridin-3-yl)-3-fluorophenyl)-6-cyano-5-(4-fluorophenyl)-1-cyclopropyl-4-oxo-1,4-dihydropyridine-3-carboxamide]",0.95 nM,91 nM,10 nM
"N#Cc1c(-c2ccc(F)cc2)c(=O)c(C(=O)Nc2ccc(-c3cc(-c4cnn(C5CCNCC5)c4)cnc3N)c(F)c2)cn1C1CCC1 [Example 8, N-(4-(2-amino-5-(1-(piperidin-4-yl)-1H-pyrazol-4-yl)pyridin-3-yl)-3-fluorophenyl)-6-cyano-5-(4-fluorophenyl)-1-cyclobutyl-4-oxo-1,4-dihydropyridine-3-carboxamide]",1.1 nM,–,17 nM
"CCn1cc(-c2cnc(N)c(-c3ccc(NC(=O)c4cc(C)c(C#N)n(-c5ccc(F)cc5)c4=O)cc3F)c2)cn1 [Example 18, N-(4-(2-amino-5-(1-ethyl-1H-pyrazol-4-yl)pyridin-3-yl)-3-fluorophenyl)-6-cyano-1-(4-fluorophenyl)-5-methyl-2-oxo-1,2-dihydropyridine-3-carboxamide]",12 nM,298 nM,12 nM
"COc1cc2nccc(Oc3ccc(NC(=O)c4cc(C)c(CN)n(-c5ccc(F)cc5)c4=O)cc3F)c2cc1OC [Example 26, 6-(aminomethyl)-N-(4-((6,7-dimethoxyquinolin-4-yl)oxy)-3-fluorophenyl)-1-(4-fluorophenyl)-5-methyl-2-oxo-1,2-dihydro-1,2-dihydropyridine-3-carboxamide]",19 nM,132 nM,19 nM
"CCn1cc(-c2cnc(N)c(-c3ccc(NC(=O)c4cc(C5CC5)c(C#N)n(-c5ccc(F)cc5)c4=O)cc3F)c2)cn1 [Example 14, N-(4-(2-amino-5-(1-ethyl-1H-pyrazol-4-yl)pyridin-3-yl)-3-fluorophenyl)-6-cyano-5-cyclopropyl-1-(4-fluorophenyl)-2-oxo-1,2-dihydropyridine-3-carboxamide]",12 nM,–,82 nM
"COc1cc2nccc(Oc3ccc(NC(=O)c4cn(C(C)C)c(C#N)c(-c5ccc(F)cc5)c4=O)cc3F)c2cc1C#N [Example 25, 6-cyano-N-(4-((6-cyano-7-methoxyquinolin-4-yl)oxy)-3-fluoro-phenyl)-5-(4-fluorophenyl)-1-isopropyl-4-oxo-1,4-dihydropyridine-3-carboxamide]",–,115 nM,–
"CC(C)n1cc(C(=O)Nc2ccc(-c3cc(-c4cnn(C5CCNCC5)c4)cnc3N)c(F)c2)c(=O)n(-c2ccc(F)cc2)c1=O [Example 20, N-(4-(2-amino-5-(1-(piperidin-4-yl)-1H-pyrazol-4-yl)pyridin-3-yl)-3-fluorophenyl)-3-(4-fluorophenyl)-1-isopropyl-2,4-dioxo-1,2,3,4-tetrahydropyrimidine-5-carboxamide]",5.5 nM,106 nM,14 nM
"C=C(C)c1cc(C(=O)Nc2ccc(-c3cc(-c4cnn(C5CCNCC5)c4)cnc3N)c(F)c2)c(=O)n(-c2ccc(F)cc2)c1C#N [Example 17, N-(4-(2-amino-5-(1-(piperidin-4-yl)-1H-pyrazol-4-yl)pyridin-3-yl)-3-fluorophenyl)-6-cyano-1-(4-fluorophenyl)-2-oxo-5-(prop-1-en-2-yl)-1,2-dihydropyridine-3-carboxamide]",1.8 nM,–,23 nM
